These results are taken from article PMC10988834, “Neq2X7: a multi-purpose and open-source fusion DNA polymerase for advanced DNA engineering and diagnostics PCR” (BMC Biotechnology, 2024).

This assay deals with T1, Neq2X (Nanoarchaeum equitans, UniProt Q74M37+Q74N74, Q74N74:A523R/Q74N74:N540R).
T1 construct: gene NEQ068; double mutant Neq DNA polymerase without Sso7d, N-terminal 6xHis; one polypeptide, E. coli Rosetta2 (DE3) pLysS
As to the kind of experiment: PCR amplification, agarose gel. Format: biochemical. Conditions: with dATP, dCTP, dGTP, 1 min/kb, extension 72 °C.

Structures are written as SMILES.

T1 sequence (Q74M37 entry or part of it): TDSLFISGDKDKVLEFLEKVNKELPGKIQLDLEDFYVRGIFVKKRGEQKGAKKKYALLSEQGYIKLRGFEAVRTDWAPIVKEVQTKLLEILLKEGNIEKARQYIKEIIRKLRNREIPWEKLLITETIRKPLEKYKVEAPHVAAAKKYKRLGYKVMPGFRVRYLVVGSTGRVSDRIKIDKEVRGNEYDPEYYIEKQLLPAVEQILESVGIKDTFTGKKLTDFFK
T1 sequence (Q74N74 entry or part of it A523R/N540R): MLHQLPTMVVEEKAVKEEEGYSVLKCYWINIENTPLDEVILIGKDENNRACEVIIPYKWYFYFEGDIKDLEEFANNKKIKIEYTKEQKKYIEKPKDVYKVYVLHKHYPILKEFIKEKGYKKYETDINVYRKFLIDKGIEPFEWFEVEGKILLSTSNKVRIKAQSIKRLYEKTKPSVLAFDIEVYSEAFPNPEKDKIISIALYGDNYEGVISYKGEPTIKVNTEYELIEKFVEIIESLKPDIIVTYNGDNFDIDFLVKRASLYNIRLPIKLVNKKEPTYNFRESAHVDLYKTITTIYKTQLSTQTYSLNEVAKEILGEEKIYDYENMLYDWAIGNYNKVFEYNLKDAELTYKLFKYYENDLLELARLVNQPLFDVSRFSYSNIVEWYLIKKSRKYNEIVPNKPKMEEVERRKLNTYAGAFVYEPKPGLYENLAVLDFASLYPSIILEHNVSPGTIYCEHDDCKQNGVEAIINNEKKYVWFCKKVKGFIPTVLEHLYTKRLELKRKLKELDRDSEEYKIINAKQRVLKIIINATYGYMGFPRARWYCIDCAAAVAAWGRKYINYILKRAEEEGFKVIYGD

Turning to `Cc1cn([C@H]2C[C@H](O)[C@@H](COP(=O)(O)OP(=O)(O)OP(=O)(O)O)O2)c(=O)[nH]c1=O` [dTTP], for the setting “3-12 kb amplicons”, the “PCR amplification, agarose gel” value was “all three polymerases amplified DNA to a detectable level”.
As to `O=c1ccn([C@H]2C[C@H](O)[C@@H](COP(=O)(O)OP(=O)(O)OP(=O)(O)O)O2)c(=O)[nH]1` [dUTP], where the note is “dUTP fully replacing dTTP, 3 kb amplicon”, the “PCR amplification, agarose gel” value is “all tested polymerases were able to generate a detectable PCR product”.
